Reference: patent publication US8192951B2, “Glycolysis-inhibiting substances in cell culture” (Wyeth LLC, priority 2006, dated 2012)

What was measured:
α-GDF-8 cells [1] = assay: Lactate, growth, viability and titer of α-GDF-8 cells in culture dishes, two passages (Example 2); type: cell-based, Chinese Hamster; parameters: key to Gluc: glucose in g/L; viab: unit not given here
Description: Materials and Methods: α-GDF-8 cells were grown in culture dishes in Medium 1 containing approximately 6 g/L glucose with varying concentrations of 2-deoxyglucose. Some α-GDF-8 cultures were optionally supplemented with glucose to a final initial concentration of 9 g/L. Cells were passaged twice and grown for three days after each passage. At the end of three days, each of the passaged cultures was measured for viability, cell density, glucose levels, lactate levels and α-GDF-8 titer. Specific titer production rate (“Qp”) and specific lactate uptake rate (“Qlact”) were calculated. Qlact was calculated as follows: ((final lactate level−initial lactate level)/(final cell density−initial cell density))×growth rate×24, where lactate levels are measured in g/L, cell densities are measured in 10^6 cells/ml, growth rate is measured as l/h, and the final Qlact is calculated as mg/e6/day. Qp was calculated as follows: ((final titer−initial titer)/(final cell density−initial cell density))×growth rate×24, where titer is measured in mg/L, cell density is measured in 10^6 cells/ml, growth rate is measured as 1/h, and Qp is calculated as μg/e6/day.

[2] = tested on: α-GDF-8 cells (CHO cells engineered to express a monoclonal antibody against GDF-8); assay: Cell growth of α-GDF-8 cells in culture dishes with varying 2-deoxyglucose (Example 1); type: cell-based, Chinese Hamster
Description: Materials and Methods: Chinese Hamster Ovary (“CHO”) cells engineered to express a monoclonal antibody against growth and differentiation factor 8 (“α-GDF-8 cells”) (see […] et al., Neutralizing Antibodies Against GDF-8 and Uses Therefor, US20040142382 A1) were grown in culture dishes in Medium 1 supplemented with glucose to a final initial concentration of 9 g/L with varying concentrations of 2-deoxyglucose.

α-GDF-8 cells [3] = assay: α-GDF-8 cells in 1 L Bioreactors, shift on day 4 or day 6 (Example 3); type: cell-based, Chinese Hamster
Description: Materials and Methods: α-GDF-8 cells were grown in Medium 2 in 1 L Bioreactors and fed with Medium 3. Some of the cultures were supplemented with 0.5 g/L 2-deoxyglucose at the beginning of the culture. The cultures were shifted from 37° Celsius to 31° Celsius on either day 4 (“early shift”) or day 6 (“late shift”). [table]

rats = settings: fed to rats, without decreasing total food intake; cited from earlier work
α-GDF-8 cells [4] = assay: α-GDF-8 cells in 1 L Bioreactors in the presence of high glucose (Example 5); type: cell-based, Chinese Hamster; settings: 0.5 g/L 2-deoxyglucose
Description: Materials and Methods: α-GDF-8 cells were grown in Medium 2 in 1 L Bioreactors and fed with Medium 3. The starting culture media were either supplemented or not with 0.5 g/L 2-deoxyglucose. The cells were fed on days 3, 5, 7, 10 and 12 to keep the glucose level at above approximately 8 g/L. The cultures lacking 2-deoxyglucose were shifted from 37° Celsius to 31° Celsius on day 4, while the cultures containing 2-deoxyglucose were shifted from 37° Celsius to 31° Celsius on day 5.

α-GDF-8 cells [5] = assay: α-GDF-8 cells in 1 L Bioreactors, shift on day 5 or day 6 (Example 4); type: cell-based, Chinese Hamster
Description: Materials and Methods: α-GDF-8 cells were grown in Medium 2 in 1 L Bioreactors and fed with Medium 3. Some of the cultures were supplemented with 0.5 g/L 2-deoxyglucose at the beginning of the culture. The cells were fed with either 3 g/L glucose or 0.3 g/L 2-deoxyglucose on day 4 and with either 10% feed medium (by volume) or 10% feed medium (by volume) supplemented with 0.2 g/L 2-deoxyglucose on day 5. The cultures were shifted from 37° Celsius to 31° Celsius on either day 5 (“early shift”) or day 6 (“late shift”). Additional feeds were provided on days 7 and 10. [table]

[6] = first passage, 0.25 g/L deoxyglucose, 9 g/L glucose
[7] = first passage, 0.5 g/L deoxyglucose, 6 g/L glucose
[8] = first passage, 0.5 g/L deoxyglucose, 9 g/L glucose
[9] = first passage, 1 g/L deoxyglucose, 9 g/L glucose
[10] = second passage, 0.25 g/L deoxyglucose, 9 g/L glucose
[11] = second passage, 0.5 g/L deoxyglucose, 6 g/L glucose
[12] = second passage, 0.5 g/L deoxyglucose, 9 g/L glucose
[13] = second passage, 1 g/L deoxyglucose, 6 g/L glucose
[14] = second passage, 1 g/L deoxyglucose, 9 g/L glucose
[15] = 0.5 g/L 2-deoxyglucose, early shift (day 4)
[16] = 0.5 g/L 2-deoxyglucose, late shift (day 6)

O=CC[C@@H](O)[C@H](O)[C@H](O)CO [2-deoxyglucose]
effect on accumulation of lactate (α-GDF-8 cells [1]; culture dishes, dose-dependent): reduced the accumulation of lactate in the culture in a dose-dependent manner | effect on specific growth rate (α-GDF-8 cells [1]; culture dishes, dose-dependent): negatively affected | effect on α-GDF-8 titer (α-GDF-8 cells [1]; culture dishes, dose-dependent): reduced the α-GDF-8 titer in a dose-dependent manner | Gluc (α-GDF-8 cells [1]; [6]): 7.55 | Qlact (α-GDF-8 cells [1]; [6]): 0.899 mg/e6/day | c.d (end) (α-GDF-8 cells [1]; [6]): 1.3 10^6 cells/ml | lact (α-GDF-8 cells [1]; [6]): 1.53 g/L | viab (α-GDF-8 cells [1]; [6]): 99.7 | μ (specific growth rate) (α-GDF-8 cells [1]; [6]): 0.032 h⁻¹ | Gluc (α-GDF-8 cells [1]; [7]): 5.21 | Qlact (α-GDF-8 cells [1]; [7]): 0.701 mg/e6/day | c.d (end) (α-GDF-8 cells [1]; [7]): 1.24 10^6 cells/ml | lact (α-GDF-8 cells [1]; [7]): 1.2 g/L | viab (α-GDF-8 cells [1]; [7]): 99.1 | μ (specific growth rate) (α-GDF-8 cells [1]; [7]): 0.03 h⁻¹ | Gluc (α-GDF-8 cells [1]; [8]): 7.88 | Qlact (α-GDF-8 cells [1]; [8]): 0.727 mg/e6/day | c.d (end) (α-GDF-8 cells [1]; [8]): 1.12 10^6 cells/ml | lact (α-GDF-8 cells [1]; [8]): 1.22 g/L | viab (α-GDF-8 cells [1]; [8]): 99.3 | μ (specific growth rate) (α-GDF-8 cells [1]; [8]): 0.028 h⁻¹ | Gluc (α-GDF-8 cells [1]; [9]): 8.13 | Qlact (α-GDF-8 cells [1]; [9]): 0.553 mg/e6/day | c.d (end) (α-GDF-8 cells [1]; [9]): 1.05 10^6 cells/ml | lact (α-GDF-8 cells [1]; [9]): 0.9 g/L | viab (α-GDF-8 cells [1]; [9]): 99.7 | μ (specific growth rate) (α-GDF-8 cells [1]; [9]): 0.027 h⁻¹ | Gluc (α-GDF-8 cells [1]; [10]): 7.25 | Qlact (α-GDF-8 cells [1]; [10]): 0.576 mg/e6/day | Qp (α-GDF-8 cells [1]; [10]): 15.477 μg/e6/day | c.d (end) (α-GDF-8 cells [1]; [10]): 3.2 10^6 cells/ml | lact (α-GDF-8 cells [1]; [10]): 2.17 g/L | titer (α-GDF-8) (α-GDF-8 cells [1]; [10]): 58.28 mg/L | viab (α-GDF-8 cells [1]; [10]): 99.5 | μ (specific growth rate) (α-GDF-8 cells [1]; [10]): 0.035 h⁻¹ | Gluc (α-GDF-8 cells [1]; [11]): 5.04 | Qlact (α-GDF-8 cells [1]; [11]): 0.415 mg/e6/day | Qp (α-GDF-8 cells [1]; [11]): 13.135 μg/e6/day | c.d (end) (α-GDF-8 cells [1]; [11]): 2.6 10^6 cells/ml | lact (α-GDF-8 cells [1]; [11]): 1.36 g/L | titer (α-GDF-8) (α-GDF-8 cells [1]; [11]): 43 mg/L | viab (α-GDF-8 cells [1]; [11]): 99 | μ (specific growth rate) (α-GDF-8 cells [1]; [11]): 0.033 h⁻¹ | Gluc (α-GDF-8 cells [1]; [12]): 7.65 | Qlact (α-GDF-8 cells [1]; [12]): 0.506 mg/e6/day | Qp (α-GDF-8 cells [1]; [12]): 14.252 μg/e6/day | c.d (end) (α-GDF-8 cells [1]; [12]): 2.8 10^6 cells/ml | lact (α-GDF-8 cells [1]; [12]): 1.79 g/L | titer (α-GDF-8) (α-GDF-8 cells [1]; [12]): 50.37 mg/L | viab (α-GDF-8 cells [1]; [12]): 99.6 | μ (specific growth rate) (α-GDF-8 cells [1]; [12]): 0.033 h⁻¹ | Gluc (α-GDF-8 cells [1]; [13]): 6.51 | Qlact (α-GDF-8 cells [1]; [13]): 0.290 mg/e6/day | Qp (α-GDF-8 cells [1]; [13]): 12.038 μg/e6/day | c.d (end) (α-GDF-8 cells [1]; [13]): 1.5 10^6 cells/ml | lact (α-GDF-8 cells [1]; [13]): 0.68 g/L | titer (α-GDF-8) (α-GDF-8 cells [1]; [13]): 28.22 mg/L | viab (α-GDF-8 cells [1]; [13]): 98.6 | μ (specific growth rate) (α-GDF-8 cells [1]; [13]): 0.027 h⁻¹ | Gluc (α-GDF-8 cells [1]; [14]): 9 | Qlact (α-GDF-8 cells [1]; [14]): 0.290 mg/e6/day | Qp (α-GDF-8 cells [1]; [14]): 12.400 μg/e6/day | c.d (end) (α-GDF-8 cells [1]; [14]): 1.9 10^6 cells/ml | lact (α-GDF-8 cells [1]; [14]): 0.98 g/L | titer (α-GDF-8) (α-GDF-8 cells [1]; [14]): 34.85 mg/L | viab (α-GDF-8 cells [1]; [14]): 99 | μ (specific growth rate) (α-GDF-8 cells [1]; [14]): 0.028 h⁻¹ | Qlact (α-GDF-8 cells [1]; second passage, 1 g/L deoxyglucose, 9 g/L glucose, listed as 2-Deoxyglucose): 0.349 mg/e6/day | effect on viability of the cells (α-GDF-8 cells [1]; up to a ratio of 2-deoxyglucose to glucose of 1 to 6): largely unaffected | specific growth rate (μ) ([2]; 1 g/L 2-deoxyglucose, 9 g/L glucose (ratio 1:9)): over 0.02 l/h | specific growth rate (μ) ([2]; 2.5 g/L 2-deoxyglucose, 9 g/L glucose): approximately 0.015 l/h | effect of increasing amounts on specific growth rate ([2]; 9 g/L glucose): reduced the specific growth rate in a dose-dependent manner | final titer vs culture lacking 2-deoxyglucose (α-GDF-8 cells [3]; [15]): slightly higher | lactate levels vs culture lacking 2-deoxyglucose (α-GDF-8 cells [3]; [15]): slightly lower | cell density at the time of the shift (α-GDF-8 cells [3]; [16]): approximately 18 ×e^6/mL | final titer vs culture lacking 2-deoxyglucose (α-GDF-8 cells [3]; [16]): slightly higher | lactate level at the time of the shift (α-GDF-8 cells [3]; [16]): approximately 6 g/L | lactate levels vs culture lacking 2-deoxyglucose (α-GDF-8 cells [3]; [16]): slightly lower | viability vs late shifted cells without 2-deoxyglucose (α-GDF-8 cells [3]; [16]): significantly higher | cell density vs the other three conditions (α-GDF-8 cells [3]; 0.5 g/L 2-deoxyglucose, late shift (day 6), from approximately day 4): significantly higher | lactate level at the time of the shift (α-GDF-8 cells [3]; early shift (day 4), stated for the two early shifted cultures, with and without 2-deoxyglucose): 4 to 5 g/L | glucose/energy flux (rats): reduces glucose/energy flux | lactate accumulation vs cultures lacking 2-deoxyglucose (α-GDF-8 cells [4]; glucose above approximately 8 g/L, shift day 5): significantly lower | α-GDF-8 titer vs culture lacking 2-deoxyglucose (α-GDF-8 cells [4]; high glucose, by day 14): slightly higher | cell density vs culture lacking 2-deoxyglucose (α-GDF-8 cells [4]; high glucose, middle stage of the culture): slightly higher | overall integrated viable cell density vs cells without 2-deoxyglucose (α-GDF-8 cells [4]; high glucose, shifted one day later): higher | final lactate concentration vs early shifted cultures (α-GDF-8 cells [5]; [16]): lower | α-GDF-8 produced per cell vs other three conditions (α-GDF-8 cells [5]; [16]): less α-GDF-8 per cell | cell density vs the other three conditions (α-GDF-8 cells [5]; 0.5 g/L 2-deoxyglucose, late shift (day 6), from approximately day 5): significantly higher | glucose uptake (α-GDF-8 cells [5]; 2-deoxyglucose in the culture medium, early and late shift): decrease | overall titer of α-GDF-8 vs other culture conditions (α-GDF-8 cells [5]; all four culture conditions): similar
